Converted amounts (≈) assume the structure as drawn.
How the values were obtained:
Format in all cases: physicochemical
[1] = Solubility in aqueous solutions of surfactants/additives and non-aqueous vehicles (Experimental Example 6)
Procedure: (§1) Excess amounts of the Compound A were dispersed in aqueous solutions containing various surfactants and additives, respectively. In each case, the solubility of the compound was determined by measuring the light absorbance at 277 nm with the filtrate. For non-aqueous vehicles marked with *, the corresponding solubility of the compound was judged by eye-measurement.

[2] = Solubility in solutions of basic substances (Experimental Example 7)
Procedure: as §1
Using the same procedures as stated in Experimental Example 6, solubility measurements were carried out.

[3] = Solubility in water; details: 25° C., as free base form
[4] = Coloration of Compound A on exposure to oxygen, heat or light

solubility ([1]; 5% amycol no. 1): 5100 µg/mL (≈ 40.1 mM)
solubility ([1]; 5% ethylurea): 5600 µg/mL (≈ 44.1 mM)
solubility ([1]; 5% levulinic acid): 6300 µg/mL (≈ 49.6 mM)
solubility ([1]; 5% nicotinic amide): 7200 µg/mL (≈ 56.6 mM)
solubility ([1]; 5% polyoxyethylene hydrogenated castor oil, organic solvent or mixture): 4500 µg/mL (≈ 35.4 mM)
solubility ([1]; 5% polyoxyethylene sorbitan monooleate): 4600 µg/mL (≈ 36.2 mM)
solubility ([1]; 5% sodium lauryl sulfate): 4700 µg/mL (≈ 37 mM)
solubility ([1]; 5% sodium salicylate): 6500 µg/mL (≈ 51.1 mM)
solubility ([1]; 5% tartaric acid): 7000 µg/mL (≈ 55.1 mM)
solubility ([1]; 10% mannitol): 4600 µg/mL (≈ 36.2 mM)
Solubility (in words) ([1]; 10% sodium deoxycholate): white gel
solubility ([1]; corn oil, organic solvent or mixture): < 2000 µg/mL
solubility ([1]; cotton seed oil, organic solvent or mixture): < 2000 µg/mL
solubility ([1]; ethanol, organic solvent or mixture): < 2000 µg/mL
solubility ([1]; glycerine, organic solvent or mixture): ~3000 µg/mL (≈ 23.6 mM)
solubility ([1]; n,n-dimethylacetamide, organic solvent or mixture): < 2000 µg/mL
solubility ([1]; polyethylene glycol, organic solvent or mixture): < 2000 µg/mL
solubility ([1]; propylene glycol, organic solvent or mixture): ~5000 µg/mL (≈ 39.3 mM)
solubility ([1]; saturated aspartic acid): 5400 µg/mL (≈ 42.5 mM)
Solubility (in words) ([1]; saturated gentisic acid): white gel
solubility ([1]; saturated glutamic acid): 5300 µg/mL (≈ 41.7 mM)
solubility ([1]; sesame oil, organic solvent or mixture): < 2000 µg/mL
solubility ([1]; water): 4700 µg/mL (≈ 37 mM)
solubility ([2]; pH 8.2, 5% L-lysine, pH of solvent 8.20): 10700 µg/mL (≈ 84.2 mM)
solubility ([2]; pH 8.42, aqueous buffer, NaHCO3-Na2CO3 buffer, pH of solvent 8.42): 26700 µg/mL (≈ 210 mM)
solubility ([2]; pH 8.44, 5% borax, pH of solvent 8.44): 22200 µg/mL (≈ 175 mM)
solubility ([2]; pH 8.5, 0.5% NaOH, pH of solvent 8.50): 21400 µg/mL (≈ 168 mM)
solubility ([2]; pH 8.56, 5% trishydroxy methylamino methane, pH of solvent 8.56): 25700 µg/mL (≈ 202 mM)
solubility ([2]; pH 8.64, 1% ethanolamine, pH of solvent 8.64): 24900 µg/mL (≈ 196 mM)
solubility ([2]; pH 8.69, 5% L-arginine, pH of solvent 8.69): 33500 µg/mL (≈ 264 mM)
solubility [3]: ~4700 µg/mL (≈ 37 mM)
Structure (SMILES): NC(=O)c1nc[nH]c1O [Compound A, 4-carbamoyl-5-hydroxyimidazole]
coloration / instability [4]: so unstable that it is easily colored upon exposure to oxygen, heat, or light

Source: patent US4582845A, “Pharmaceutical composition for injection” (Sumitomo Pharmaceuticals Co., Ltd., priority 1980, dated 1986)
